# In the OligoGym collection:
# Several values for one entry are separate records, joined by “and”; a condition that tells them apart may be missing. Equal values may be shown once. After the bases stand the sugars from the 5' end (letter, count) and the backbone: PS all phosphorothioate, else s phosphorothioate and o phosphodiester by linkage. Methylation of C is not given here. e = 2'-O-(2-methoxyethyl) (MOE); k = constrained ethyl (cEt); d = 2'-deoxy (DNA)
# Target: SOD1
# Details: ASO
sequence,measurement,setting,value
"AAATACAGGTCATTGAA (sugars e2 k2 d8 k2 e3, PS)",target mRNA inhibition,"HepG2, 5 µM",28%
"AAATACAGGTCATTGAA (sugars e3 k2 d7 k2 e3, PS)",target mRNA inhibition,"HepG2, 3 µM",2%
"AAATCTTCCAAGTGATC (sugars e3 k2 d7 k2 e3, PS)",target mRNA inhibition,"HepG2, 3 µM",4%
"AACAGATGAGTTAAGGG (sugars e2 k2 d8 k2 e3, PS)",target mRNA inhibition,"HepG2, 0.1875 µM",32%
same,target mRNA inhibition,"HepG2, 0.75 µM",55%
same,target mRNA inhibition,"HepG2, 3 µM",78%
same,target mRNA inhibition,"HepG2, 4 µM",73%
same,target mRNA inhibition,"HepG2, 12 µM",93%
"AACCAGCACCCCGTCTCCGC (sugars e5 d10 e5, PS)",target mRNA inhibition,"HepG2, 4 µM",11%
"AACTATACAAATCTTCC (sugars e2 k2 d8 k2 e3, PS)",target mRNA inhibition,"HepG2, 5 µM",60%
"AACTATACAAATCTTCC (sugars e3 k2 d7 k2 e3, PS)",target mRNA inhibition,"HepG2, 3 µM",28%
"AAGATTACAGTGTTTAA (sugars e3 k2 d7 k2 e3, PS)",target mRNA inhibition,"HepG2, 3 µM",34%
"AAGGGAATGTTTATTGG (sugars e3 k2 d7 k2 e3, PS)",target mRNA inhibition,"HepG2, 3 µM",2%
"AAGTGCCATACAGGGTT (sugars e2 k2 d9 k2 e2, PS)",target mRNA inhibition,"HepG2, 5 µM",21%
"AAGTTTAATACCCATCT (sugars e2 k2 d8 k2 e3, PS)",target mRNA inhibition,"HepG2, 5 µM",54%
"AAGTTTAATACCCATCT (sugars e2 k2 d9 k2 e2, PS)",target mRNA inhibition,"HepG2, 5 µM",59%
"AATAAGTGCCATACAGG (sugars e2 k2 d8 k2 e3, PS)",target mRNA inhibition,"HepG2, 5 µM",40%
"AATACCCATCTGTGATTTAA (sugars e5 d10 e5, PS)",target mRNA inhibition,"HepG2, 5 µM",0%
"AATAGACACATCGGCCACAC (sugars e5 d10 e5, PS)",target mRNA inhibition,"HepG2, 5 µM",30% and 25%
"AATAGCCTCATAATAAG (sugars e2 k2 d8 k2 e3, PS)",target mRNA inhibition,"HepG2, 5 µM",20%
"AATCTTCCAAGTGATCATAA (sugars e5 d10 e5, PS)",target mRNA inhibition,"HepG2, 5 µM",4%
"AATGTTTATTGGGCGAT (sugars e3 k2 d7 k2 e3, PS)",target mRNA inhibition,"HepG2, 3 µM",30%
"AATTACACTTTTAAGATTAC (sugars e5 d10 e5, PS)",target mRNA inhibition,"HepG2, 5 µM",1%
"ACACAATTACACTTTTAAGA (sugars e5 d10 e5, PS)",target mRNA inhibition,"HepG2, 5 µM",0%
"ACAGCTAGCAGGATAAC (sugars e2 k2 d8 k2 e3, PS)",target mRNA inhibition,"HepG2, 0.1875 µM",11%
same,target mRNA inhibition,"HepG2, 0.75 µM",64%
same,target mRNA inhibition,"HepG2, 3 µM",87%
same,target mRNA inhibition,"HepG2, 4 µM",79%
same,target mRNA inhibition,"HepG2, 12 µM",95%
"ACAGCTAGCAGGATAAC (sugars e2 k2 d9 k2 e2, PS)",target mRNA inhibition,"HepG2, 0.1875 µM",29%
same,target mRNA inhibition,"HepG2, 0.75 µM",71%
same,target mRNA inhibition,"HepG2, 3 µM",89%
same,target mRNA inhibition,"HepG2, 4 µM",83%
same,target mRNA inhibition,"HepG2, 12 µM",97%
"ACAGGTACTTTAAAGCA (sugars e2 k2 d9 k2 e2, PS)",target mRNA inhibition,"HepG2, 5 µM",20%
"ACAGTGTTTAATGTTTA (sugars e2 k2 d8 k2 e3, PS)",target mRNA inhibition,"HepG2, 0.1875 µM",39%
same,target mRNA inhibition,"HepG2, 0.75 µM",69%
same,target mRNA inhibition,"HepG2, 3 µM",82%
same,target mRNA inhibition,"HepG2, 4 µM",78%
same,target mRNA inhibition,"HepG2, 5 µM",83%
same,target mRNA inhibition,"HepG2, 12 µM",84% and 86%
"ACAGTGTTTAATGTTTA (sugars e2 k2 d9 k2 e2, PS)",target mRNA inhibition,"HepG2, 0.1875 µM",40%
same,target mRNA inhibition,"HepG2, 0.75 µM",67%
same,target mRNA inhibition,"HepG2, 3 µM",86%
same,target mRNA inhibition,"HepG2, 4 µM",79%
same,target mRNA inhibition,"HepG2, 5 µM",84%
same,target mRNA inhibition,"HepG2, 12 µM",83% and 88%
"ACATGGAATCCATGCAG (sugars e3 k2 d7 k2 e3, PS)",target mRNA inhibition,"HepG2, 3 µM",0%
"ACCATCTTTGTCAGCAGTCA (sugars e5 d10 e5, PS)",target mRNA inhibition,"HepG2, 5 µM",41% and 30%
"ACCCATCTGTGATTTAA (sugars e2 k2 d9 k2 e2, PS)",target mRNA inhibition,"HepG2, 5 µM",44%
"ACCTCCGCGCCTCGCCCACT (sugars e5 d10 e5, PS)",target mRNA inhibition,"HepG2, 4 µM",63% and 77%
same,target mRNA inhibition,"HepG2, 12 µM",92%
"ACGCTGCAGGAGACTAC (sugars e3 k2 d7 k2 e3, PS)",target mRNA inhibition,"HepG2, 3 µM",25%
"ACTACATCCAAGGGAAT (sugars e2 k2 d8 k2 e3, PS)",target mRNA inhibition,"HepG2, 4 µM",42%
"ACTGCAACGGAAACCCCAGA (sugars e5 d10 e5, PS)",target mRNA inhibition,"HepG2, 4 µM",43%
"AGACATTTTAACTGAGT (sugars e2 k2 d9 k2 e2, PS)",target mRNA inhibition,"HepG2, 5 µM",53%
"AGACCTCCGCGCCTCGCCCA (sugars e5 d10 e5, PS)",target mRNA inhibition,"HepG2, 12 µM",84%
"AGATTACAGTGTTTAAT (sugars e3 k2 d7 k2 e3, PS)",target mRNA inhibition,"HepG2, 3 µM",45%
"AGCAACTCTGAAAAAGTCAC (sugars e5 d10 e5, PS)",target mRNA inhibition,"HepG2, 5 µM",14%
"AGCAGGATAACAGATGA (sugars e3 k2 d7 k2 e3, PS)",target mRNA inhibition,"HepG2, 3 µM",45%
"AGCTAGCAGGATAACAG (sugars e2 k2 d8 k2 e3, PS)",target mRNA inhibition,"HepG2, 4 µM",57%
"AGCTAGCAGGATAACAG (sugars e3 k2 d7 k2 e3, PS)",target mRNA inhibition,"HepG2, 3 µM",15%
"AGGATACATTTCTACAG (sugars e2 k2 d8 k2 e3, PS)",target mRNA inhibition,"HepG2, 4 µM",60%
"AGGATACATTTCTACAGC (sugars e5 d8 e5, linkages s1 o3 s9 o2 s2)",target mRNA inhibition,"A431, 0.12 µM",42%
same,target mRNA inhibition,"A431, 0.6 µM",23%
same,target mRNA inhibition,"A431, 3 µM",26%
same,target mRNA inhibition,"A431, 15 µM",45%
same,target mRNA inhibition,"HepG2, 0.222 µM",9%
same,target mRNA inhibition,"HepG2, 0.667 µM",43%
same,target mRNA inhibition,"HepG2, 2 µM",65%
same,target mRNA inhibition,"HepG2, 6 µM",86%
